Results from ChEMBL document CHEMBL5137127, “Astramalabaricosides A-T, Highly Oxygenated Malabaricane Triterpenoids with Migratory Inhibitory Activity from Astragalus membranaceus var. mongholicus” (J Nat Prod, 2022).
Calls of active or inactive are those of the source. The calls are words filed in the database; no cut-off is given here.

system: HepG2; assay: Antimigratory activity against human HepG2 cells assessed as inhibition of cell migration at 100 uM measured upto 24 hrs by inverted microscopy based scratch wound healing assay; type: functional

Question: CC(=O)N[C@H]1[C@H](O[C@H]2[C@H](O[C@H]3[C@H](O[C@H]4CC[C@]5(C)[C@H]6C[C@@H](O)[C@@H]([C@](C)(O)CC/C=C(\C)C[C@H](O)[C@H](O)C(C)(C)O)[C@]6(C)CC[C@H]5C4(C)C)O[C@H](CO[C@@H]4OC[C@@H](O)[C@H](O)[C@H]4O)[C@@H](O)[C@@H]3O)O[C@@H](C)[C@H](O)[C@H]2O)O[C@H](CO)[C@@H](O)[C@@H]1O[C@@H]1OC[C@H](O)[C@H](O)[C@H]1O was tested. Which Activity did it give?
Answer: Active

Question: For CC(=O)N[C@H]1[C@H](O[C@H]2[C@H](O[C@H]3[C@H](O[C@H]4CC[C@]5(C)[C@H]6C[C@@H](O)[C@@H]([C@](C)(O)CC/C=C(\C)C[C@@H]7OC(=O)O[C@H]7[C@](C)(O)CO[C@@H]7O[C@H](CO)[C@@H](O)[C@H](O)[C@H]7O)[C@]6(C)CC[C@H]5C4(C)C)O[C@H](CO[C@@H]4OC[C@@H](O)[C@H](O)[C@H]4O)[C@@H](O)[C@@H]3O)O[C@@H](C)[C@H](O)[C@H]2O)O[C@H](CO)[C@@H](O)[C@@H]1O, which Activity is on record?
Answer: Active

Question: With CC(=O)N[C@H]1[C@H](O[C@H]2[C@H](O[C@H]3[C@H](O[C@H]4CC[C@]5(C)[C@H]6C[C@@H](O)[C@@H]([C@](C)(O)CC/C=C(\C)C[C@@H]7OC(=O)O[C@H]7[C@](C)(O)CO)[C@]6(C)CC[C@H]5C4(C)C)O[C@H](CO[C@@H]4OC[C@@H](O)[C@H](O)[C@H]4O)[C@@H](OC(C)=O)[C@@H]3O)O[C@@H](C)[C@H](O)[C@H]2O)O[C@H](CO)[C@@H](O)[C@@H]1O as the molecule, how does the Activity read?
Answer: Active

Question: How did the Activity turn out when C/C(=C\CC[C@@](C)(O)[C@@H]1[C@H](O)C[C@H]2[C@@]1(C)CC[C@H]1C(C)(C)[C@@H](O[C@@H]3O[C@H](CO[C@@H]4OC[C@@H](O)[C@H](O)[C@H]4O)[C@@H](O)[C@H](O)[C@H]3O[C@@H]3O[C@@H](C)[C@H](O)[C@@H](O)[C@H]3O)CC[C@]21C)C[C@@H]1OC(=O)O[C@H]1[C@](C)(O)CO[C@@H]1O[C@H](CO)[C@@H](O)[C@H](O)[C@H]1O was run?
Answer: Active

Question: For C/C(=C\CC[C@@](C)(O)[C@@H]1[C@H](O)C[C@H]2[C@@]1(C)CC[C@H]1C(C)(C)[C@@H](O[C@@H]3O[C@H](CO[C@@H]4OC[C@@H](O)[C@H](O)[C@H]4O)[C@@H](O)[C@H](O)[C@H]3O[C@@H]3O[C@@H](C)[C@H](O)[C@@H](O)[C@H]3O)CC[C@]21C)C[C@H](O)[C@@H](O)[C@@](C)(O)CO[C@@H]1O[C@H](CO)[C@@H](O)[C@H](O)[C@H]1O, which Activity is on record?
Answer: Active

Question: How did the Activity turn out when CC(=O)N[C@H]1[C@H](O[C@H]2[C@H](O[C@H]3[C@H](O[C@H]4CC[C@]5(C)[C@H]6C[C@@H](O)[C@@H]([C@](C)(O)CC/C=C(\C)C[C@H](O)[C@H](O)C(C)(C)O)[C@]6(C)CC[C@H]5C4(C)C)O[C@H](CO)[C@@H](O)[C@@H]3O)O[C@@H](C)[C@H](O)[C@H]2O)O[C@H](CO)[C@@H](O)[C@@H]1O was run?
Answer: Active

Question: C/C(=C\CC[C@@](C)(O)[C@@H]1[C@H](O)C[C@H]2[C@@]1(C)CC[C@H]1C(C)(C)[C@@H](O[C@@H]3O[C@H](CO[C@@H]4OC[C@@H](O)[C@H](O)[C@H]4O)[C@@H](O)[C@H](O)[C@H]3O[C@@H]3O[C@@H](C)[C@H](O)[C@@H](O)[C@H]3O)CC[C@]21C)C[C@H](O)[C@@H](O)[C@@](C)(O)CO was tested. Which Activity did it give?
Answer: Active

Question: Which Activity does the source give for C/C(=C\CC[C@@](C)(O)[C@@H]1[C@H](O)C[C@H]2[C@@]1(C)CC[C@H]1C(C)(C)[C@@H](O[C@@H]3O[C@H](CO[C@@H]4OC[C@@H](O)[C@H](O)[C@H]4O)[C@@H](O)[C@H](O)[C@H]3O[C@@H]3O[C@@H](C)[C@H](O)[C@@H](O)[C@H]3O)CC[C@]21C)C[C@@H]1OC(=O)O[C@H]1[C@](C)(O)CO here?
Answer: Active

Question: CC(=O)N[C@H]1[C@H](O[C@H]2[C@H](O[C@H]3[C@H](O[C@H]4CC[C@]5(C)[C@H]6C[C@@H](O)[C@@H]([C@](C)(O)CC/C=C(\C)C[C@@H]7OC(=O)O[C@H]7C(C)(C)O)[C@]6(C)CC[C@H]5C4(C)C)O[C@H](CO[C@@H]4OC[C@@H](O)[C@H](O)[C@H]4O)[C@@H](O)[C@@H]3O)O[C@@H](C)[C@H](O)[C@H]2O)O[C@H](CO)[C@@H](O)[C@@H]1O was tested. Which Activity did it give?
Answer: Active

Question: With CC(=O)N[C@H]1[C@H](O[C@H]2[C@H](O[C@H]3[C@H](O[C@H]4CC[C@]5(C)[C@H]6C[C@@H](O)[C@@H]([C@](C)(O)CC/C=C(\C)C[C@@H]7OC(=O)O[C@H]7[C@](C)(O)CO)[C@]6(C)CC[C@H]5C4(C)C)O[C@H](CO[C@@H]4OC[C@@H](O)[C@H](O)[C@H]4O)[C@@H](O)[C@@H]3O)O[C@@H](C)[C@H](O)[C@H]2O)O[C@H](CO)[C@@H](O)[C@@H]1O[C@@H]1OC[C@H](O)[C@H](O)[C@H]1O as the molecule, how does the Activity read?
Answer: Active

Question: CC(=O)N[C@H]1[C@H](O[C@H]2[C@H](O[C@H]3[C@H](O[C@H]4CC[C@]5(C)[C@H]6C[C@@H](O)[C@@H]([C@](C)(O)CC/C=C(\C)C[C@H](O)[C@@H](O)[C@@](C)(O)CO)[C@]6(C)CC[C@H]5C4(C)C)O[C@H](CO[C@@H]4OC[C@@H](O)[C@H](O)[C@H]4O)[C@@H](O)[C@@H]3O)O[C@@H](C)[C@H](O)[C@H]2O)O[C@H](CO)[C@@H](O)[C@@H]1O[C@@H]1OC[C@H](O)[C@H](O)[C@H]1O was tested. Which Activity did it give?
Answer: Active

Question: Which Activity does the source give for CC(=O)N[C@H]1[C@H](O[C@H]2[C@H](O[C@H]3[C@H](O[C@H]4CC[C@]5(C)[C@H]6C[C@@H](O)[C@@H]([C@](C)(O)CC/C=C(\C)C[C@H](O)[C@@H](O)[C@@](C)(O)CO[C@@H]7O[C@H](CO)[C@@H](O)[C@H](O)[C@H]7O)[C@]6(C)CC[C@H]5C4(C)C)O[C@H](CO[C@@H]4OC[C@@H](O)[C@H](O)[C@H]4O)[C@@H](O)[C@@H]3O)O[C@@H](C)[C@H](O)[C@H]2O)O[C@H](CO)[C@@H](O)[C@@H]1O here?
Answer: Active

Question: Which Activity does the source give for CC(=O)N[C@H]1[C@H](O[C@H]2[C@H](O[C@H]3[C@H](O[C@H]4CC[C@]5(C)[C@H]6C[C@@H](O)[C@@H]([C@](C)(O)CC/C=C(\C)C[C@H](O)[C@H](O)C(C)(C)O)[C@]6(C)CC[C@H]5C4(C)C)O[C@H](CO[C@@H]4OC[C@@H](O)[C@H](O)[C@H]4O)[C@@H](O)[C@@H]3O)O[C@@H](C)[C@H](O)[C@H]2O)O[C@H](CO)[C@@H](O)[C@@H]1O here?
Answer: Active

Question: CC(=O)N[C@H]1[C@H](O[C@H]2[C@H](O[C@H]3[C@H](O[C@H]4CC[C@]5(C)[C@H]6C[C@@H](O)[C@@H]([C@](C)(O)CC/C=C(\C)C[C@@H]7OC(=O)O[C@H]7[C@](C)(O)CO)[C@]6(C)CC[C@H]5C4(C)C)O[C@H](CO[C@@H]4OC[C@@H](O)[C@H](O)[C@H]4O)[C@@H](O)[C@@H]3OC(C)=O)O[C@@H](C)[C@H](O)[C@H]2O)O[C@H](CO)[C@@H](O)[C@@H]1O was tested. Which Activity did it give?
Answer: Active

Question: CC(=O)N[C@H]1[C@H](O[C@H]2[C@H](O[C@H]3[C@H](O[C@H]4CC[C@]5(C)[C@H]6C[C@@H](O)[C@@H]([C@](C)(O)CC/C=C(\C)C[C@@H]7OC(=O)O[C@H]7[C@](C)(O)CO)[C@]6(C)CC[C@H]5C4(C)C)O[C@H](CO[C@@H]4OC[C@@H](O)[C@H](O)[C@H]4O)[C@@H](O)[C@@H]3O)O[C@@H](C)[C@H](O)[C@H]2O)O[C@H](CO)[C@@H](O)[C@@H]1O was tested. Which Activity did it give?
Answer: Active

Question: CC(=O)N[C@H]1[C@H](O[C@H]2[C@H](O[C@H]3[C@H](O[C@H]4CC[C@]5(C)[C@H]6C[C@@H](O)[C@@H]([C@](C)(O)CC/C=C(\C)C[C@H](O)[C@@H](O)[C@@](C)(O)CO)[C@]6(C)CC[C@H]5C4(C)C)O[C@H](CO[C@@H]4OC[C@@H](O)[C@H](O)[C@H]4O)[C@@H](O)[C@@H]3O)O[C@@H](C)[C@H](O)[C@H]2O)O[C@H](CO)[C@@H](O)[C@@H]1O was tested. Which Activity did it give?
Answer: Active
